Some test systems named below: NCI-H522; UO-31; SF-295; RPMI-8226; NCI-H460; UACC-257; OVCAR-3; SK-MEL-2; HCT-116; HCT-15; SK-MEL-28; LOX IMVI; TK-10; HOP-62.
Holding throughout (test): NCI tumour cell line growth inhibition, 48 h

SMILES strings stand for the structures.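 Exposure lasted 48 hours, with cells grown in 96-well plates and compounds tested at five concentrations. GI50 = concentration required for 50% inhibition of growth.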 Active and inactive are the calls of the source. Cut-off read from the data, not from the text of the source: active = GI50 up to about 1.1 µM and inactive = higher. Some results are limits rather than exact numbers.

In the case of `COC(OC)c1cccc2c1C(=O)CCC1(CC2)OCCCCO1`, the GI50 in the experiment on NCI-H522, in the experiment on UO-31, in the experiment with SF-295, in the experiment on RPMI-8226, with NCI-H460 and with UACC-257 was > 100 µM (inactive) each time. In addition, the GI50 with OVCAR-3 was > 100 µM (inactive); in the experiment on SK-MEL-2, > 100 µM (inactive); with HCT-116, > 100 µM (inactive); with HCT-15 it was greater than 100 µM; in the experiment with SK-MEL-28, > 100 µM (inactive); with LOX IMVI it was > 100 µM (inactive). In addition, the GI50 in the experiment with TK-10 and in the experiment with HOP-62 was > 100 µM (inactive) each time.
`O=C1NC(=O)C2C(=O)NC(=O)C1C2c1c(Cl)cccc1Cl` (configuration not stated): the GI50 in the experiment with NCI-H522 was > 77.1 µM (inactive); with UO-31, > 100 µM (inactive); in the experiment on SF-295, > 100 µM (inactive); in the experiment on RPMI-8226, > 46.6 µM (inactive); in the experiment with NCI-H460 it was > 42.2 µM (inactive); with UACC-257 it was > 67.9 µM (inactive). In addition, the GI50 in the experiment on OVCAR-3 was > 100 µM (inactive); in the experiment with SK-MEL-2 it was > 100 µM (inactive); in the experiment with HCT-116, > 42.6 µM (inactive); with HCT-15, greater than 100 µM; with SK-MEL-28 it was > 100 µM (inactive); in the experiment on LOX IMVI, > 43 µM (inactive). In addition, the GI50 in the experiment with TK-10 and with HOP-62 was > 100 µM (inactive) in each case.
For `CCC(=O)C(C)C1=Nc2nnc(CCCCCCCc3nnc4n3C(=O)C(C(C)C(=O)CC)=N4)n2C1=O` (configuration not stated), the GI50 with NCI-H522, in the experiment on UO-31, with SF-295, in the experiment with RPMI-8226, in the experiment on NCI-H460 and in the experiment on UACC-257 was > 100 µM (inactive) in each case. Further, the GI50 in the experiment on OVCAR-3 was > 100 µM (inactive); in the experiment with HCT-116, > 100 µM (inactive); with HCT-15, greater than 100 µM; with SK-MEL-28, > 100 µM (inactive); in the experiment on LOX IMVI, > 100 µM (inactive); in the experiment with TK-10, > 100 µM (inactive). Moreover, the GI50 in the experiment with HOP-62 was > 100 µM (inactive).
Turning to `CC(=O)NNc1nc(C)c(C(=O)NNC(=O)C(=O)Nc2ccc(Cl)cc2Cl)s1`, the GI50 with NCI-H522 was 19.5 µM (inactive); in the experiment with UO-31, 28.2 µM (inactive); in the experiment with SF-295, 42.1 µM (inactive); with RPMI-8226 it was 31.3 µM (inactive); with NCI-H460 it was > 10 µM (inactive); with UACC-257 it was 31 µM (inactive). Further, the GI50 in the experiment with OVCAR-3 was 19.6 µM (inactive); with SK-MEL-2, 44.1 µM (inactive); with HCT-116, 47.2 µM (inactive); in the experiment with HCT-15, 38.5 µM; in the experiment with SK-MEL-28, 39.9 µM (inactive); in the experiment with LOX IMVI, 33.7 µM (inactive). Besides, the results for the GI50 in the experiment on TK-10 and in the experiment with HOP-62 were 74.3 µM (inactive) and 38.5 µM (inactive), respectively.
For `Cc1cccc(N2C(=O)C(=O)C(c3nc4ccccc4s3)C(=O)C2=O)c1C`, the GI50 with NCI-H522, in the experiment on UO-31, with SF-295, with RPMI-8226, in the experiment with UACC-257 and with OVCAR-3 was > 100 µM (inactive) throughout. In addition, the GI50 in the experiment with SK-MEL-2 is > 100 µM (inactive); in the experiment with HCT-116, > 100 µM (inactive); with HCT-15 it was greater than 100 µM; in the experiment with SK-MEL-28, > 100 µM (inactive); with LOX IMVI, > 100 µM (inactive); in the experiment with TK-10, > 100 µM (inactive). Further, the GI50 in the experiment with HOP-62 is > 100 µM (inactive).
Consider `CC(=O)/C(=N\O)C(=O)Nc1ccc(Cl)cc1Cl`, for which the GI50 with NCI-H522 was 97.9 µM (inactive); in the experiment with UO-31 it was > 100 µM (inactive); with SF-295, > 100 µM (inactive); with RPMI-8226, > 100 µM (inactive); in the experiment with NCI-H460, > 100 µM (inactive); with UACC-257, > 100 µM (inactive). Further, the GI50 is > 100 µM (inactive) in the experiment on OVCAR-3; > 100 µM (inactive) in the experiment on SK-MEL-2; > 100 µM (inactive) in the experiment with HCT-116; greater than 100 µM in the experiment on HCT-15; > 100 µM (inactive) in the experiment on SK-MEL-28; > 100 µM (inactive) in the experiment with LOX IMVI. The GI50 in the experiment on TK-10 and in the experiment on HOP-62 was > 100 µM (inactive) throughout.
As for `CC1(C)CC(c2c[nH]c3ccccc23)=CC2=Nc3ccccc3C21O` (configuration not stated), the GI50 in the experiment with NCI-H522 is 34.8 µM (inactive); in the experiment with UO-31, > 100 µM (inactive); with SF-295, 38.5 µM (inactive); in the experiment with RPMI-8226, > 100 µM (inactive); in the experiment with NCI-H460, > 100 µM (inactive); in the experiment on UACC-257 it was > 100 µM (inactive). Moreover, the GI50 in the experiment with OVCAR-3 was 33.3 µM (inactive); with SK-MEL-2, > 100 µM (inactive); with HCT-116 it was 41.8 µM (inactive); with HCT-15 it was greater than 100 µM; with SK-MEL-28, 16.4 µM (inactive); in the experiment on LOX IMVI, > 100 µM (inactive). Moreover, the GI50 in the experiment on TK-10 and with HOP-62 was > 100 µM (inactive) each time.
As for `Cc1c(C(=O)C/C(=N/NC(=O)c2ccccc2O)C(=O)Nc2ccccc2C(C)C)[n+]([O-])c2ccccc2[n+]1[O-]`, the GI50 is 20.9 µM (inactive) in the experiment with NCI-H522; 56.9 µM (inactive) in the experiment on SF-295; 31.2 µM (inactive) in the experiment with NCI-H460; 28.1 µM (inactive) in the experiment with UACC-257; 25.8 µM (inactive) in the experiment on OVCAR-3; 0.0522 µM (active) with SK-MEL-2. Further, the GI50 was 27.7 µM (inactive) with HCT-116; 30.3 µM in the experiment on HCT-15; 69.7 µM (inactive) with SK-MEL-28; 32.1 µM (inactive) in the experiment with LOX IMVI; > 100 µM (inactive) in the experiment with TK-10; > 100 µM (inactive) with HOP-62.
For the molecule `CCCCCCCCCCC(=O)CCCCCCC(=O)O`, the GI50 with NCI-H522 was 21.4 µM (inactive); in the experiment on UO-31, 23.7 µM (inactive); in the experiment with SF-295, 21.5 µM (inactive); in the experiment on RPMI-8226, 13.4 µM (inactive); with NCI-H460, 16.5 µM (inactive); in the experiment on UACC-257, 82.6 µM (inactive). In addition, the GI50 in the experiment with OVCAR-3 was 18.2 µM (inactive); in the experiment on SK-MEL-2, 25.8 µM (inactive); in the experiment on HCT-116 it was 13.8 µM (inactive); in the experiment with HCT-15 it was 13.5 µM; with SK-MEL-28 it was 40 µM (inactive); with LOX IMVI, 15.7 µM (inactive). Also, the GI50 was 32.1 µM (inactive) with TK-10 and 25.4 µM (inactive) in the experiment with HOP-62.
Take `C[C@H](NS(=O)(=O)c1ccc(NC(=O)c2ccccc2)cc1)C(=O)O`: the GI50 in the experiment with NCI-H522, in the experiment on UO-31, in the experiment on SF-295, with RPMI-8226, with NCI-H460 and in the experiment with UACC-257 was > 100 µM (inactive) in each case. The GI50 is > 100 µM (inactive) in the experiment on OVCAR-3; > 100 µM (inactive) with SK-MEL-2; greater than 100 µM in the experiment with HCT-15; > 100 µM (inactive) in the experiment with SK-MEL-28; > 100 µM (inactive) in the experiment with LOX IMVI; > 100 µM (inactive) with TK-10.
As to `Cc1c2ccnc(O)c2cc2c(=O)c3cnccc3[nH]c12`, the GI50 in the experiment with NCI-H522, with UO-31, in the experiment on SF-295, with RPMI-8226, in the experiment on NCI-H460 and with UACC-257 was > 100 µM (inactive) in each case. The GI50 with OVCAR-3 is > 100 µM (inactive); in the experiment with SK-MEL-2 it was > 100 µM (inactive); in the experiment on HCT-116, > 100 µM (inactive); in the experiment on HCT-15 it was greater than 100 µM; with SK-MEL-28 it was > 100 µM (inactive); in the experiment with LOX IMVI, > 100 µM (inactive). For the same molecule, the GI50 in the experiment on TK-10 and in the experiment with HOP-62 was > 100 µM (inactive) throughout.
`CCC1CNC(=O)CC1CC(=O)OC` (configuration not stated): the GI50 with NCI-H522 is > 100 µM (inactive); in the experiment on UO-31, > 100 µM (inactive); with OVCAR-3 it was > 100 µM (inactive); with SK-MEL-2, > 100 µM (inactive); with HCT-116, > 100 µM (inactive); in the experiment on HCT-15 it was greater than 100 µM. For the same molecule, the GI50 in the experiment on SK-MEL-28, in the experiment with LOX IMVI, with TK-10 and in the experiment with HOP-62 was > 100 µM (inactive) each time.
Turning to `Cc1c(/C=C2\CC/C(=C\c3[nH]c(C(=O)OC(C)(C)C)c(C)c3C)C2=O)[nH]c(C(=O)OC(C)(C)C)c1C`, the GI50 in the experiment on NCI-H522, with UO-31, in the experiment on SF-295, in the experiment on RPMI-8226, in the experiment on NCI-H460 and in the experiment with UACC-257 was > 100 µM (inactive) throughout. Besides, the GI50 in the experiment on OVCAR-3 is > 100 µM (inactive); in the experiment with SK-MEL-2 it was > 100 µM (inactive); in the experiment with HCT-116 it was > 100 µM (inactive); in the experiment with HCT-15, greater than 100 µM; in the experiment with LOX IMVI, > 100 µM (inactive); with TK-10 it was > 100 µM (inactive). For the same molecule, in the experiment on HOP-62, the GI50 was > 100 µM (inactive).
For `c1ccc2c(CNCCCCCCCCCCCCNCc3cccc4ccccc34)cccc2c1`, the GI50 with NCI-H522 was 1.88 µM (inactive); in the experiment on UO-31, 1.64 µM (inactive); in the experiment on SF-295, 19.5 µM (inactive); with RPMI-8226, 1.04 µM (active); with NCI-H460, 1.53 µM (inactive); in the experiment with UACC-257 it was 1.78 µM (inactive). Also, the GI50 with OVCAR-3 is 1.85 µM (inactive); in the experiment with SK-MEL-2, 1.59 µM (inactive); in the experiment with HCT-116, 1.61 µM (inactive); in the experiment on HCT-15, 1.66 µM; with SK-MEL-28 it was 1.95 µM (inactive); with LOX IMVI, 1.22 µM (inactive). Moreover, the GI50 in the experiment on TK-10 and with HOP-62 was 2.14 µM (inactive) in each case.
Regarding `COc1cc(CO)cc2c1[nH]c1ccccc12` [KOENOLINE], the GI50 with NCI-H522 is 24.6 µM (inactive); in the experiment with UO-31, > 25 µM (inactive); with RPMI-8226 it was > 25 µM (inactive); in the experiment with NCI-H460, 24.4 µM (inactive); in the experiment with OVCAR-3 it was > 25 µM (inactive); in the experiment with SK-MEL-2, > 25 µM (inactive). Moreover, the GI50 in the experiment with HCT-116 is > 25 µM (inactive); in the experiment on HCT-15 it was greater than 25 µM; in the experiment with SK-MEL-28 it was > 25 µM (inactive); in the experiment with LOX IMVI, > 25 µM (inactive); in the experiment on TK-10, > 25 µM (inactive); with HOP-62, > 25 µM (inactive).

These data come from ChEMBL document CHEMBL1201862, “PubChem BioAssay data set” (2004).
